Reference: US20090012103A1, “SUBSTITUTED HETEROCYCLIC COMPOUNDS” (priority 2007, published 2009)
Like-named read-outs stand apart in the source and are kept apart here.

Target: wild-type human cardiac sodium channel, hNav1.5 (Homo sapiens, UniProt Q14524)
Assay: Late INa screening assay (late sodium current, PatchXpress whole cell patch clamp)
Assay type: cell-based
Conditions: read-out: Late INa % blk

Chain of wild-type human cardiac sodium channel, hNav1.5 (Q14524 whole entry): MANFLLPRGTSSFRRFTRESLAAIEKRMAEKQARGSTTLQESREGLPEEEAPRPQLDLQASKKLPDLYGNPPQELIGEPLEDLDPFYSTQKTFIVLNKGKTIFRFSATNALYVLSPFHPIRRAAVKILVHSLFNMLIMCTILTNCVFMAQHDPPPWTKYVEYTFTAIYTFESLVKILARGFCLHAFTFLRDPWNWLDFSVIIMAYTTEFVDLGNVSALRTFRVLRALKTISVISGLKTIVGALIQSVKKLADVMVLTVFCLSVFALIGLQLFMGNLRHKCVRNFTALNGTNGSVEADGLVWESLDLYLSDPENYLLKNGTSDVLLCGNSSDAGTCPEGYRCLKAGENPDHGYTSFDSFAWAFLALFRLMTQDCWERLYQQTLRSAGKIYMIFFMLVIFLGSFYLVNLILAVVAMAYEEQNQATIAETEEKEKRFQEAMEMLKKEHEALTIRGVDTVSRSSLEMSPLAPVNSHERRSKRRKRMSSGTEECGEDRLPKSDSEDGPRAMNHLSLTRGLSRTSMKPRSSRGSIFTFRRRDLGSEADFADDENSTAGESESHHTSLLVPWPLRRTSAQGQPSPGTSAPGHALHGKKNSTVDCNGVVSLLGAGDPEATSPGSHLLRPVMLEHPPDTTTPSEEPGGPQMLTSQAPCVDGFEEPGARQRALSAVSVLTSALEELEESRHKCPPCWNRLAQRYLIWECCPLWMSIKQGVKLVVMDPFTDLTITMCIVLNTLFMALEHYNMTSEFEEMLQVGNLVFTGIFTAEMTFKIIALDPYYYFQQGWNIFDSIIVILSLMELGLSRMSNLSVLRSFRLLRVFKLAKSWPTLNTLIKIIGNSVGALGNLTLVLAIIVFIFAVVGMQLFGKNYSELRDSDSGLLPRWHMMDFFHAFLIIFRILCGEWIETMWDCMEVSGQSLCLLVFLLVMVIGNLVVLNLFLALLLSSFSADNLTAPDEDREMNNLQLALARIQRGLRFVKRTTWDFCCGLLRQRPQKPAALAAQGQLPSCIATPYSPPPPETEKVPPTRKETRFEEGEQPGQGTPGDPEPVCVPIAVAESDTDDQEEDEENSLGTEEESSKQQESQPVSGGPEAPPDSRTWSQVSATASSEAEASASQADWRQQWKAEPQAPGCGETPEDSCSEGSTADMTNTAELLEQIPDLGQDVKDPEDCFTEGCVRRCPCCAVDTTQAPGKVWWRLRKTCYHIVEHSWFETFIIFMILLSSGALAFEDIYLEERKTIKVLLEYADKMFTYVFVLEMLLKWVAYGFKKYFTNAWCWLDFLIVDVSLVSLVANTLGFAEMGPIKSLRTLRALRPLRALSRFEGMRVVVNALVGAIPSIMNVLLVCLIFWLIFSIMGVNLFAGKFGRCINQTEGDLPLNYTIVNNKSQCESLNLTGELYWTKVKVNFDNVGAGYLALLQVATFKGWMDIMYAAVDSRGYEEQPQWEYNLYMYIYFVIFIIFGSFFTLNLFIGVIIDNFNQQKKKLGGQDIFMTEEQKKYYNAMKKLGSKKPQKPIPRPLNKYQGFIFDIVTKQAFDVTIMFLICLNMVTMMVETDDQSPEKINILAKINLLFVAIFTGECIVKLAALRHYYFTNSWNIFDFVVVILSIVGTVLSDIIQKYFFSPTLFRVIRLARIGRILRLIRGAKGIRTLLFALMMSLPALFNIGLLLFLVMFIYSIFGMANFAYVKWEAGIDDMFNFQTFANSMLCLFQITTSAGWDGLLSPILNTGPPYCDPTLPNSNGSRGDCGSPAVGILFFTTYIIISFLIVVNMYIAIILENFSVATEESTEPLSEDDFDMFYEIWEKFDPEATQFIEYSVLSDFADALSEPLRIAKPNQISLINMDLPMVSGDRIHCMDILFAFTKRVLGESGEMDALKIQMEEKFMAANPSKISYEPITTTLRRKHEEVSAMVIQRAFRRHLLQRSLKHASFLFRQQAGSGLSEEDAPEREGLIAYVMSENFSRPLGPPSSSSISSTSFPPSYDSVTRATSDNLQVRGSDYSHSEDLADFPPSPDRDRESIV

| Structure (SMILES) | inhibition at 10 µM (compound at 10 μM) [%] | inhibition at 10 µM [%] |
| --- | --- | --- |
| CC1=C(C(=O)OCC2CC2)C(c2c(-c3ccc(C(=O)O)cc3)sc3ccccc23)n2nnnc2N1 (centres unmarked) [PT-293, 4-(3-(6-((cyclopropylmethoxy)carbonyl)-5-methyl-4,7-dihydrotetrazolo[1,5-a]pyrimidin-7-yl)benzo[b]thiophen-2-yl)benzoic acid] | 7.7 |  |
| CC1=C(C(=O)NCCc2ccccc2)C(c2cccc3ccccc23)n2nnnc2N1 (centres unmarked) [PT-310, 5-methyl-7-(naphthalen-1-yl)-N-phenethyl-4,7-dihydrotetrazolo[1,5-a]pyrimidine-6-carboxamide] | 23.6 |  |
| COc1cc(Cl)ccc1COC(=O)C1=C(C)Nc2nnnn2C1c1ccccc1Br (centres unmarked) [PT-308, 4-chloro-2-methoxybenzyl 7-(2-bromophenyl)-5-methyl-4,7-dihydrotetrazolo[1,5-a]pyrimidine-6-carboxylate] | 53.4 |  |
| CC1=C(C(=O)OCc2ccccc2)C(c2cnc(N3CCN(C)CC3)s2)n2nnnc2N1 (centres unmarked) [PT-341, benzyl 5-methyl-7-(2-(4-methylpiperazin-1-yl)thiazol-5-yl)-4,7-dihydrotetrazolo[1,5-a]pyrimidine-6-carboxylate] | 23.3 |  |
| CC1=C(C(=O)OCc2ccccc2)C(c2cncs2)n2nnnc2N1 (centres unmarked) [PT-365, benzyl 5-methyl-7-(thiazol-5-yl)-4,7-dihydrotetrazolo[1,5-a]pyrimidine-6-carboxylate] | 26.9 |  |
| CC1=C(C(=O)OC(C)(C)C)C(c2ccc3ccccc3c2)n2nnnc2N1 (centres unmarked) [PT-022, tert-butyl 5-methyl-7-(naphthalen-2-yl)-4,7-dihydrotetrazolo[1,5-a]pyrimidine-6-carboxylate] | 26 |  |
| CC1=C(C(=O)OC(c2ccc(F)cc2)c2ccc(F)cc2)C(c2cccc3ccccc23)n2nnnc2N1 (centres unmarked) [PT-007, bis(4-fluorophenyl)methyl 5-methyl-7-(naphthalen-1-yl)-4,7-dihydrotetrazolo[1,5-a]pyrimidine-6-carboxylate] | 44 |  |
| CC1=C(C(=O)NCc2ccccc2)C(c2cccc3ccccc23)n2nnnc2N1 (centres unmarked) [PT-067, N-benzyl-5-methyl-7-(naphthalen-1-yl)-4,7-dihydrotetrazolo[1,5-a]pyrimidine-6-carboxamide] | 24.4 |  |
| COc1ccc(C2C(C(=O)OCc3ccc(Cn4cccn4)cc3)=C(C)Nc3nnnn32)c2ccccc12 (centres unmarked) [PT-284, 4-((1H-pyrazol-1-yl)methyl)benzyl 7-(4-methoxynaphthalen-1-yl)-5-methyl-4,7-dihydrotetrazolo[1,5-a]pyrimidine-6-carboxylate] | 49.5 |  |
| CC1=C(c2nnc(-c3ccccc3)o2)C(c2cccc3ccccc23)n2nnnc2N1 (centres unmarked) [PT-203, 2-(5-methyl-7-(naphthalen-1-yl)-4,7-dihydrotetrazolo[1,5-a]pyrimidin-6-yl)-5-phenyl-1,3,4-oxadiazole] | 10.9 |  |
| CC1=C(C(=O)OCc2ccccc2)C(c2ccccc2-c2ccccc2C(N)=O)n2nnnc2N1 (centres unmarked) [PT-388, benzyl 7-(2′-carbamoylbiphenyl-2-yl)-5-methyl-4,7-dihydrotetrazolo[1,5-a]pyrimidine-6-carboxylate] | 2.7 |  |
| CC1=C(C(=O)OCc2ccc(C#N)cc2)C(c2cccc3ccccc23)n2nnnc2N1 (centres unmarked) [PT-046, 4-cyanobenzyl 5-methyl-7-(naphthalen-1-yl)-4,7-dihydrotetrazolo[1,5-a]pyrimidine-6-carboxylate] | 67 |  |
| CC1=C(C(=O)OCc2ccccc2)C(c2cccc3ccccc23)c2c(-c3ccc(C)cc3)n[nH]c2N1 (centres unmarked) [PT-077, benzyl 6-methyl-4-(naphthalen-1-yl)-3-p-tolyl-4,7-dihydro-1H-pyrazolo[3,4-b]pyridine-5-carboxylate] | -2.6 |  |
| CC1=C(C(=O)OC(C)(C)c2ccccc2)C(c2cccc3ccccc23)n2nnnc2N1 (centres unmarked) [PT-065, 2-phenylpropan-2-yl 5-methyl-7-(naphthalen-1-yl)-4,7-dihydrotetrazolo[1,5-a]pyrimidine-6-carboxylate] | 59 |  |
| CC1=C(C(=O)OCc2ccccc2)C(c2ccc(S(C)(=O)=O)cc2[N+](=O)[O-])n2nnnc2N1 (centres unmarked) [PT-353, benzyl 5-methyl-7-(4-(methylsulfonyl)-2-nitrophenyl)-4,7-dihydrotetrazolo[1,5-a]pyrimidine-6-carboxylate] | 5.8 |  |
| COc1cc(C#N)ccc1C1C(C(=O)OCc2ccccc2)=C(C)Nc2nnnn21 (centres unmarked) [PT-417, benzyl 7-(4-cyano-2-methoxyphenyl)-5-methyl-4,7-dihydrotetrazolo[1,5-a]pyrimidine-6-carboxylate] | 41.3 |  |
| CCOC(=O)C1=C(C)Nc2[nH]ncc2C1c1c(Br)sc2ccccc12 (centres unmarked) [PT-447, ethyl 4-(2-bromobenzo[b]thiophen-3-yl)-6-methyl-4,7-dihydro-1H-pyrazolo[3,4-b]pyridine-5-carboxylate] | 77.4 |  |
| CCOC(=O)C1=C(C)N(CC(=O)O)c2nnnn2C1c1cccc2ccccc12 (centres unmarked) [PT-258, 2-(6-(ethoxycarbonyl)-5-methyl-7-(naphthalen-1-yl)tetrazolo[1,5-a]pyrimidin-4(7H)-yl)acetic acid] | 1.6 |  |
| CCOC(=O)C1=C(C)Nc2nnnn2C1c1ccccc1-n1cncn1 (centres unmarked) [PT-475, ethyl 7-(2-(1H-1,2,4-triazol-1-yl)phenyl)-5-methyl-4,7-dihydrotetrazolo[1,5-a]pyrimidine-6-carboxylate] | 5.5 |  |
| CC1=C(C(=O)OCc2ccccc2)C(c2cccc3ccccc23)n2nnnc2N1Cc1nnn[nH]1 (centres unmarked) [PT-326, benzyl 4-((1H-tetrazol-5-yl)methyl)-5-methyl-7-(naphthalen-1-yl)-4,7-dihydrotetrazolo[1,5-a]pyrimidine-6-carboxylate] | 39.9 |  |
| CC1=C(C(=O)OCc2ccccc2)C(c2cccc3ccccc23)c2c(-c3cccs3)n[nH]c2N1 (centres unmarked) [PT-076, benzyl 6-methyl-4-(naphthalen-1-yl)-3-(thiophen-2-yl)-4,7-dihydro-1H-pyrazolo[3,4-b]pyridine-5-carboxylate] | -4.3 |  |
| CC1=C(C(=O)OC2CCCc3ccccc32)C(c2cccc3ccccc23)n2nnnc2N1 (centres unmarked) [PT-001, 1,2,3,4-tetrahydronaphthalen-1-yl 5-methyl-7-(naphthalen-1-yl)-4,7-dihydrotetrazolo[1,5-a]pyrimidine-6-carboxylate] |  | 28.8 |
| CCOC(=O)C1=C(C)Nc2nnnn2C1c1ccccc1Oc1ccc(S(N)(=O)=O)cc1 (centres unmarked) [PT-458, ethyl 5-methyl-7-(2-(4-sulfamoylphenoxy)phenyl)-4,7-dihydrotetrazolo[1,5-a]pyrimidine-6-carboxylate] | 19 |  |
| CC1=C(C(=O)OCc2ccccc2)C(c2c3ccccc3cc3ccccc23)C2=C(CCCC2=O)N1 (centres unmarked) [PT-334, benzyl 4-(anthracen-9-yl)-2-methyl-5-oxo-1,4,5,6,7,8-hexahydroquinoline-3-carboxylate] | 29.9 |  |
| CC1=C(C(=O)O[C@@H](C)c2ccccc2)[C@H](c2cccc3ccccc23)n2nnnc2N1 [PT-049, (S)-((S)-1-phenylethyl) 5-methyl-7-(naphthalen-1-yl)-4,7-dihydrotetrazolo[1,5-a]pyrimidine-6-carboxylate] | 35.4 |  |
| CCOC(=O)C1=C(C(C)C)Nc2nnnn2C1c1ccc2ccccc2c1 (centres unmarked) [PT-012, ethyl 5-isopropyl-7-(naphthalen-2-yl)-4,7-dihydrotetrazolo[1,5-a]pyrimidine-6-carboxylate] | 40.1 |  |
